No end group written: not given here.
Experiments:
EC (BAEC) = test: Uptake of FITC-peptides by fluorescence microscopy; type: cell-based, bovine; conditions: 100 μg/ml, 30 min and 60 min
Procedure: (§1) The cells examined were grown in 6-well plates on cover slips to reach near confluence. At the time of examination, the cover slips were inverted and put on a microscope slide supported by 2 thin spacers so that a thin gap (˜2 mm) was left between the cells on the coverslip and the slide. This was filled with culture medium. […] At different time points, medium was replaced with fresh medium and the fluorescence was viewed and photographed, using an Olympus fluorescent microscope system.
(§2) Accumulation of the FITC-peptide in the cytoplasm and around the nucleus was clearly observed. […] After a longer exposure of more than 1 hour or with fixed cells, accumulation of the FITC-peptide in the cytoplasm and around the nucleus was clearly observed (data not shown). In most cases, the fluorescence became concentrated in discrete cytoplasmic vesicles.

human fibroblasts (HF) = test: Uptake of FITC-peptides by fluorescence microscopy; type: cell-based; set-up: binding and internalization of dissolved FITC-peptide, fluorescent microscopy: dose or concentration left out as unconfirmed
Procedure: as §1, §2

EC cells (BAEC) = test: FACS analysis of binding of FITC-labeled peptides; type: cell-based, bovine; conditions: 10 μg/ml or 100 μg/ml, medium with 0.1% albumin
Procedure: EC and HF cell monolayers were washed and then incubated with trypsin-versene. Cells were then washed with growth medium and resuspended in medium with 0.1% albumin. FITC-labeled peptide-Cβ (SEQ ID NO:1) was incubated with 5×10^5 EC cells (10 μg/ml or 100 μg/ml) or with 2.5×10^5 HF cells (100 μg/ml) in medium with 0.1% albumin. FITC-labeled peptide-CαE (SEQ ID NO:3) and Cα (SEQ ID NO:4) (10 μg/ml) was incubated with 5×10^5 EC cells in medium with 0.1% albumin. Cells were then washed with PBS and 1% albumin. Cells were resuspended in PBS and 1% albumin and then filtered through a mesh for FACS analysis, in which the FITC tluorescence was measured for each cell.
The control is without FITC-labeled peptide (background fluorescence).
In competition experiments, cells were incubated with various concentrations of unlabeled Cβ (SEQ ID NO:1) for 15 mins, an aliquot of Cβ^FITC (4 mM) was added and the sample was subjected to FACS analysis. […] The Cβ^FITC (SEQ ID NO:1) uptake experiments best fitted a linear-quadratic curve-fit.

- binding and internalization of dissolved FITC-peptide, fluorescent microscopy (EC (BAEC)): binding and internalization
- binding and internalization of dissolved FITC-peptide, fluorescent microscopy (human fibroblasts (HF); HF, 30 min and 60 min): binding and internalization
Substance: FITC-CαE: FITC-labeled peptide CαE (SEQ ID NO:3) (RGADYSLRAVRMKIRPLVTQ; not fully specified (N-terminus); also: FITC label, position not given here)
- uptake of FITC-peptide by fluoro-microscopy (human fibroblasts (HF); 10 μM, human fibroblasts): uptake
- binding/uptake of FITC-labeled peptide by FACS, in words (EC cells (BAEC)): taken up by cells

Reference: patent US20070009571A1, “Novel haptotactic peptides” (Hadasit Medical Research Services & Development Ltd., priority 1998, published 2007)
